Source: patent US20220031680A1, “Donecopride As Neuroprotective Agent In the Treatment of Neurodegenerative Diseases” (priority 2018, published 2022)

System: 5×FAD mice
Experiment: Novel object recognition test in 5×FAD mice
Assay type: in vivo, mouse
Conditions: 1 mg/kg twice a week for 3 months; 24 h inter-session interval
Protocol: Animal experiments were carried out in accordance with the Directive by the Council of the European Communities of Nov. 24, 1986 (86/609/EEC). All efforts were made to minimize animal suffering and to reduce the number of mice used. The generation of 5×FAD mice was described in Oakley et al. (2006) J. Neurosci. 26:10129-10140. These transgenic mice overexpress both human APP (695) harboring the Swedish (K670N, M671L), Florida (1716V) and London (V7171) familial AD (FAD) mutations and human Presenilin 1 (PS1) harboring the two FAD mutations M146L and L286V. Expression of both transgenes is regulated by neuronal-specific elements of the mouse Thy1 promoter. The 5×FAD strain (B6/SJL genetic background) was maintained by crossing hemizygous transgenic mice with B6/SJL F1 breeders. The 5×FAD strain (C57BL/6J genetic background) was maintained by crossing hemizygous transgenic mice with C57BL/6J F1 breeders. All animals were genotyped by PCR using tail genomic DNA. Transgenic and WT mice were bred in our animal facility, had access to food and water ad libitum and were housed under a 12 h light-dark cycle at 22-24° C. Female 5×FAD mice were used in this study. For each experiment, the age of mice is indicated in months (with a two-week range).
Compounds were resuspended in DMSO (37.5 μg/μl, stored at −20° C.) and freshly diluted 1:250 in 0.9% NaCl prior administration. Vehicle solution (0.9% NaCl, 0.4% DMSO) was used as control.
5×FAD mice received chronic treatments with drugs or vehicle according to 2 different protocols. In each experiment, drugs or vehicle solution were administered i.p. twice a week (1 mg/kg). […]
The cognitive performance of mice was tested using the novel object recognition (NOR) test (Bevins and Besheer (2006) Nat. Protoc. 1:1306-1311). […] The whole experiment was video-recorded and object exploration [time spent by the mouse nose in contact with the object or by sniffing it at a distance s 1 cm] was blindly measured. […] A discrimination index was also calculated ([novel−familiar]/[familiar+novel]). […]

COc1cc(N)c(F)cc1C(=O)CCC1CCN(CC2CCCCC2)CC1 [Flucopride]
recognition memory, exploration of novel vs familiar object (NOR): prevent memory alteration

COc1cc(N)c(Cl)cc1C(=O)CCC1CCN(CC2CCCCC2)CC1 [Donecopride]
recognition memory, exploration of novel vs familiar object (NOR): prevent memory alteration
